Consider seven compounds from US20050272808A1, “Compositions and methods for the treatment of hypertension” (priority 2004, published 2005).

In one data set the test system is Male Sprague-Dawley rats. The experiment in a line: Systemic blood pressure and ECG of normotensive anesthetized rats, i.v. bolus injection. The class given is in vivo. As to the method: Male Sprague-Dawley rats, weighing 250-350 grams were anaesthetized with mixture of Ketamine (90 mg/Kg body weight) and Xylazine (10 mg/Kg body weight) in a single bolus injection. The rats' chest was shaven; and the rats were secured in supine position. Anaesthetized rats were intubated with 18G catheter, connected to a ventilator [Harvard Apparatus] and ventilated with a room air (volume: 2 ml, rate: 70 per min). The left femoral vein was cannulated for drug administration, which is standardized to injections of 0.2 ml/100 grams body weight over a period of 0.5-1 minutes.
For measurement of hemodynamic parameters [blood pressure (BP), heart rate (HR)] a cannula was inserted retrogradely into the left carotid artery. The tip of the catheter was positioned close to the origin of the subclavian artery.
For continuous monitoring of blood pressure (systolic and diastolic pressure) and heart rate, the catheter was connected to a pressure transducer [Grass instrument co., Quincy, Mass. USA]. To monitor the ECG (electrocardiogram): two electrodes were connected to the animal's arms and one electrode was connected to its left leg. The monitoring system was calibrated at the beginning of each experiment. Recording all the steps of the calibration. ECG and hemodynamic parameters were recorded continuously during the whole experiment.
Monitoring rate (speed of paper) was at 5 mm/sec. At different times (stabilization, after injections, blood pressure changes, etc.,) the monitoring rate was changed to 25 mm/sec. In addition routinely, every 5 minutes the monitoring rate was changed to 25 mm/sec. for 15 sec. ECG recordings were obtained at the same times as hemodynamic measurements.
The test compound was administered by bolus injection intravenously at different doses (2,4,6,8 mg/Kg body weight). Each dose was administrated twice in the same manner. The second dose was given after the hemodynamic parameters were recovered (or stabilized) following the first injection.

The subject of data set [1] is Spontaneously Hypertensive Rats (SHR). In words: Systemic blood pressure of anesthetized Spontaneously Hypertensive Rats (i.v. bolus or p.o. intra stomach). The class given is in vivo, rat. As to the method: Spontaneously Hypertensive Rats, (Harlan USA) 290-330 gr weight, were anaesthetized with 100-120 mg/kg Inactin in one single bolus injection i.p. The chest was shaven, and animal was secured in supine position. Anaesthetized rats were subject to tracheotomy with 18G catheter. The left femoral vein was cannulated for drug administration and infusion.
For measurement of hemodynamic parameters a cannula was inserted retrogradely into the left carotid artery. The tip of the catheter was positioned close to the origin of the subclavian artery. The catheter was connected to a blood pressure measurement system (BioPac MP100 workstation, BioPac System inc.). ECG was recorded by BioPac MP100 workstation. The information was saved electronically.
During the experiment 1 ml/h of Hartmann's solution was infused i.v.
Alternatively an 80-125 mg/Kg of MCT-based formulation was injected p.o. intra stomach.

The test system of data set [2] is Cat iris sphincter smooth muscle (SV-CISM-2) cells. In words: cGMP assay (RIA) in cultured smooth muscle cells in presence of IBMX. The class given is cell-based. Conditions: for cGMP formed % of control / cGMP formed: IBMX present; for cGMP formed: mean±SEM. Here is the method:
Cat iris sphincter smooth muscle (SV-CISM-2) cells were maintained in Dulbecco's modified Eagle medium (DMEM), supplemented with 10% fetal calf serum (FCS) and 50 μg/ml gentamicin (culture medium) as described by Ding et al. 1999. (Life Sci. Vol: 64 pp. 161-174) To initiate subculture, confluent SV-CISM-2 cells were washed with Ca^2+-Mg^2+ free Dulbecco's phosphate buffered salt solution (PBS) and treated with 0.05% trypsin in 0.5 mM EDTA for 3 minutes at 37° C. This was followed by addition of culture medium, and the cell suspension was centrifuged at 200 g for 5 minutes. The pelleted cells were suspended in culture medium and seeded in 6-well plates for the cGMP assay. Confluent cells, in 6-well plates were washed once with DMEM and incubated in 2 ml DMEM for 15 minutes at 37° C. IBMX (0.1 mM) was added and incubated for additional 10 minutes. The tested agent was then added and incubations continued for 10 minutes. Anantin (1 μM) or L-NAME (0.1 mM) were added along with IBMX, 10 minutes prior to addition of the tested compound. Reactions were stopped by replacing the medium with 1 ml ice-cold 5% trichloroacetic acid (TCA) (W/V). The obtained samples were homogenized, centrifuged and the supernatants were extracted with anhydrous diethylether. A 100 μl portion of the supernatant from each sample was taken; and after appropriate dilutions cGMP was assayed by radioimmunoassay RIA as described by the aforementioned Ding et al. 1999. Protein content was determinate by the method of Lowry with bovine serum albumin as standard as described in the aforementioned Ding et al. 1999. The data are presented as mean±SEM of three separate experiments with triplicate incubations for each data point.

For data set [3], the system named is cultured SV40 transformed cat iris sphincter smooth muscle (SV-CISM-2). To be noted: WO 01/39766, cited from earlier work; for elevation of cGMP levels in vitro: SV-CISM-2 cells; for ability to elevate cGMP levels in cultured smooth muscle cells: comparison of the two compounds.
[4] abbreviates: 4 mg/Kg body weight, single dose.
Setting [5] is: 8 mg/Kg body weight i.v. bolus, 30 minutes after first injection, FIG. 1A.
Where [6] appears, read: 8 mg/Kg body weight i.v. bolus, 30 minutes after first injection, FIG. 1B.
Where [7] appears, read: additional (second) bolus injection 8 mg/Kg, after 30 minutes.
[8] abbreviates: 20 mg/Kg body weight i.v. bolus.
Setting [9] is: 20 mg/Kg body weight i.v. bolus, 30 minutes after injection.
[10] abbreviates: oral administration, 80 or 125 mg/Kg.

As for `C1CCC2(CCCCO2)OC1` [1,7-dioxaspiro[5.5]undecane], the “effect on systemic blood pressure” value in the data set with Male Sprague-Dawley rats (2 mg/Kg body weight, single and double dose) is “no effect”; with Male Sprague-Dawley rats (setting [4]), “mild hypotensive effect”. In addition, the “hypotensive effect after second injection” value with Male Sprague-Dawley rats (4 mg/Kg body weight, second injection of the same dose) was “more pronounced”. Also, the “duration of hypotensive effect” value with Male Sprague-Dawley rats (setting [4]) is recorded as “about 15 minutes”. For the same compound, the “reduction in systolic blood pressure (average)” value with Male Sprague-Dawley rats (setting [5]) turned out to be 18.1%; with Male Sprague-Dawley rats (setting [7]) it was 28.3%. Further, the “reduction in systolic blood pressure (range)” value is 10-30% with Male Sprague-Dawley rats (setting [5]); 15-42% in the data set on Male Sprague-Dawley rats (setting [7]); 20-30% in data set [1] (setting [9]); 15-28% in data set [1] (oral administration, 80 mg/Kg body weight, after 150 minutes); 20-30% in data set [1] (oral administration, 80 mg/Kg, after 150 minutes, stated under FIG. 5B (diastolic blood pressure)); 30-45% in data set [1] (oral administration, 125 mg/Kg, 150 minutes post injection). Besides, the “reduction in systolic blood pressure (range)” value in data set [1] (oral administration, 125 mg/Kg, after 150 minutes, stated under FIG. 5B (diastolic blood pressure)) is recorded as 40-53%. Further, the “reduction in diastolic blood pressure (average)” value in the data set on Male Sprague-Dawley rats (setting [6]) came to 20.5%; with Male Sprague-Dawley rats (setting [7]), 36.5%. The “reduction in diastolic blood pressure (range)” value with Male Sprague-Dawley rats (setting [6]) is recorded as 7-32%; in the data set on Male Sprague-Dawley rats (setting [7]), 15-53%; in data set [1] (setting [8]), 15-28%. Besides, the “effect on heart contractility (ECG monitoring)” value in the data set on Male Sprague-Dawley rats (single and double dosage of 2-8 mg/Kg body weight i.v. bolus) is “no effect”. For the same compound, the duration of effect was at least 90 min in data set [1] (20 mg/Kg i.v. bolus) and “about an hour” in data set [1] (setting [10]). For the same compound, the “time of maximal effect after the injection” value in data set [1] (20 mg/Kg i.v. bolus) lay in the range of 110 to 120 min; in data set [1] (setting [10]), 150 to 220 min. The figures for the “cGMP formed % of control” value in data set [2] (0.1 μM & Anantin (1 μM)), in data set [2] (0.1 μM & L-NAME (100 μM)) and in data set [2] (0.1 μM) were 253 % of control, 182 % of control and 236 % of control, respectively. The cGMP formed in data set [2] (0.1 μM & Anantin (1 μM)) came to 1.32 ± 0.1 pmol/mg protein/10 min; in data set [2] (0.1 μM & L-NAME (100 μM)) it was 0.94 ± 0.15 pmol/mg protein/10 min; in data set [2] (0.1 μM), 1.23 ± 0.1 pmol/mg protein/10 min. The “increase of cGMP concentration” value in data set [2] (0.1 μM, versus control) stood at 2.36 times. Further, the “elevation of cGMP levels in vitro” value in data set [3] is “elevate cGMP levels”. Moreover, in data set [3], the “ability to elevate cGMP levels in cultured smooth muscle cells” value is on record as “comparable ability to elevate cGMP levels”.

Consider `C1=COC2(CC1)CCCCO2` (stereo not shown) [1,7-dioxaspiro[5.5]undec-2-ene], for which the “reduction in diastolic blood pressure (range)” value in data set [1] (setting [8]) is given as 20-33%. In data set [1] (setting [9]), the “reduction in systolic blood pressure (range)” value is given as 18-28%. For the same compound, in data set [1] (20 mg/Kg i.v. bolus), the duration of effect entry is on record as “about 30 minutes” and the “time of maximal effect after the injection” value was 35 to 55 min.

`CCCC/C=C\CCCCCCCCCCCC=O` [Z-13-octadecenal, reference compound]: the “effect on blood pressure” value in the data set with Male Sprague-Dawley rats (4 mg/Kg body weight bolus, two animals, single and double dose) is listed as “no reduction”. Also, in the data set with Male Sprague-Dawley rats (8 mg/Kg body weight bolus injection, five animals, FIG. 2), the “effect on blood pressure” value is “uncontrolled reduction in blood pressure in three out of five animals tested”. Besides, the “response of systemic blood pressure in the two surviving animals” value in the data set with Male Sprague-Dawley rats (8 mg/Kg body weight, both injections) is “minimal or no response”. For the same compound, the “toxicity of intravenous administration (mortality)” value in the data set on Male Sprague-Dawley rats (intravenous administration, five animals) is “death of three out of five animals tested”. In addition, in data set [3], the “elevation of cGMP levels in vitro” value is listed as “elevate cGMP levels” and the “ability to elevate cGMP levels in cultured smooth muscle cells” value is recorded as “comparable ability to elevate cGMP levels”.

`C/C=C/C=C/CCCCCCCO` [E,E-8,10-Dodecadienol]: the “elevation of cGMP levels in vitro” value in data set [3] was “elevate cGMP levels”.

Turning to `COC(=O)[C@@H](N)CCCNC(=N)N[N+](=O)[O-]` [L-NAME, N^G-nitro-L-arginine methyl ester, reference compound], the “effect on 1,7-dioxaspiro[5.5]undecane-stimulated cGMP formation” value in data set [2] (tested together with 1,7-dioxaspiro[5.5]undecane 0.1 μM, Anantin 1 μM, L-NAME 100 μM) was “attenuated”.

Consider `CCCC/C=C\CCCCCCCCCCOC(C)=O` [Z-11-Hexadecenyl-Acetate], for which the “elevation of cGMP levels in vitro” value in data set [3] was “elevate cGMP levels”.

Take `CCCCCC/C=C\CCCCCC=O` [Z-7-Tetradecenal]: in data set [3], the “elevation of cGMP levels in vitro” value is on record as “elevate cGMP levels”.
